In paper PMC8312697, “Mechanistic Investigations Support Liver Safety of Ubrogepant” (Toxicological Sciences, 2020):

Legend:
MRP4 = target: T1, MRP4 (Homo sapiens, UniProt O15439); assay: MRP4 vesicular transport inhibition assay; type: biochemical; conditions: for inhibition of MRP4-mediated probe substrate transport: vesicular transport inhibition assay
T1 construct: Solvo Biotechnology (Szeged, Hungary), contract laboratory that ran the assay
T1 sequence (O15439 1-1325): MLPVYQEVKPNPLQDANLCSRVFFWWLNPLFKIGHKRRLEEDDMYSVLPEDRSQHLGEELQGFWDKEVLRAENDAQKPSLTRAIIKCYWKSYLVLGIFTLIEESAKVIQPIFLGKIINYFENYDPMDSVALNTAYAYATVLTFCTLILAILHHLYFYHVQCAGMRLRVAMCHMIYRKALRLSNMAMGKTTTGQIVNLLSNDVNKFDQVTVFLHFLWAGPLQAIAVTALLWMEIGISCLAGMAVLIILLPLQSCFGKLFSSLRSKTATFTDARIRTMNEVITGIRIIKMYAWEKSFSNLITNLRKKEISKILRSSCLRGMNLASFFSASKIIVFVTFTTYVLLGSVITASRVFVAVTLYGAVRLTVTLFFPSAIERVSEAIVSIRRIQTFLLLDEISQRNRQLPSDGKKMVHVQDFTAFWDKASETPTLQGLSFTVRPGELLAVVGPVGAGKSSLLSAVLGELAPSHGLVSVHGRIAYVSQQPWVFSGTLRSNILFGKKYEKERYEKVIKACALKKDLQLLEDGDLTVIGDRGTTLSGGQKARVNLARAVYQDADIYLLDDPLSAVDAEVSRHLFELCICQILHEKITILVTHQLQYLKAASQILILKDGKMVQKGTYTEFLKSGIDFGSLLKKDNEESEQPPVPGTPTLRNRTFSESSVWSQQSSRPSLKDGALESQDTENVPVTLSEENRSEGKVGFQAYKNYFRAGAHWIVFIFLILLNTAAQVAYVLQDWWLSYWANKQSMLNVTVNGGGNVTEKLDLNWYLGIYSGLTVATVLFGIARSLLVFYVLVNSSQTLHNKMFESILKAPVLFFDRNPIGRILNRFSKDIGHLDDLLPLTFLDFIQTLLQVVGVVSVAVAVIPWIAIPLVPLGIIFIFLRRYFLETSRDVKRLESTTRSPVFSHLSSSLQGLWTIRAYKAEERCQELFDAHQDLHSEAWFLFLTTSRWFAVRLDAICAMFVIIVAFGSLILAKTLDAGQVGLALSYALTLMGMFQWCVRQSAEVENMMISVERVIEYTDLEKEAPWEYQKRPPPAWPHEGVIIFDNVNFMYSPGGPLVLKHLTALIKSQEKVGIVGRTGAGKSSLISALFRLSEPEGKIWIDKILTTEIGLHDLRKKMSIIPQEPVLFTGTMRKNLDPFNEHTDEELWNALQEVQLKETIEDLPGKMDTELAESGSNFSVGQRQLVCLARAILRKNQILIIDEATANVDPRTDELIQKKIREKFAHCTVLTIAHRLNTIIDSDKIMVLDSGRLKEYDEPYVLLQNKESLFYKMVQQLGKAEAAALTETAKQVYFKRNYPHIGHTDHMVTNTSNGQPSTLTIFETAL
Method: (§1) To assess the functional impact of ubrogepant on the human ABC efflux transporters BSEP, MRP3, and MRP4, in vitro vesicular transport inhibition assays were conducted by Solvo Biotechnology (Szeged, Hungary). The ability of ubrogepant to inhibit the BSEP-mediated transport (and accumulation) of a probe substrate was tested at concentrations ranging from 0.04 – 30 μM, where the latter defined the upper limit of compound solubility in the BSEP assay buffer. For the MRP3 and MRP4 vesicle-based transporter assessments, ubrogepant concentrations of 0.1 to 70 μM were used. To assess the functional impact of ubrogepant on the human SLC (uptake) transporter NTCP, in vitro experiments were performed using HEK293 cells stably expressing NTCP. The ability of ubrogepant to inhibit NTCP-mediated uptake (and accumulation) of taurocholate was tested at concentrations ranging from 0.04 – 30 μM.
(§2) To assess the functional impact of MK-3207 on the human ABC efflux transporters BSEP, MRP3 and MRP4, in vitro vesicular transport inhibition assays were conducted by Solvo Biotechnology (Szeged, Hungary) and overseen by DSSI. BSEP transport was assessed in the presence of 0.5-30 µM MK-3207; MRP3 and MRP4 transport was assessed in the presence of 0.11-80 µM MK-3207. The upper limits of these ranges were determined by compound solubility in each assay buffer. NTCP transporter inhibition was assessed in NTCP-expressing HEK293 cells in the presence of 0.03 – 25 µM MK-3207.
IC50 values for MK-3207 were calculated for each of the transporters; these values were used as inputs into DILIsym. It was assumed that inhibition type for MK-3207 for MRP3 and MRP4 was mixed with α= 5; this is a typical value for bile acid transporter inhibitors in the experience of the DSS team.

CGRP receptor = target: T2, CGRP receptor (Homo sapiens, UniProt O60894+Q16602); assay: CGRP-stimulated cAMP response in HEK293 cells; type: cell-based; conditions: read-out: Potency IC50
T2 construct: expressed in transfected cells; host or cells: HEK293

[1] = target: T3, bile salt export pump (BSEP) (Homo sapiens, UniProt O95342); assay: HEPATOPAC taurocholic acid transport / bile acid excretion; type: cell-based
T3 construct: host or cells: human hepatocytes in HEPATOPAC micropatterned co-culture
Excerpt: The human HEPATOPAC model was also used to measure the effects of test agents on transport of taurocholic acid as an indicator of altered bile salt export pump (BSEP) function ([Li et al., 2017]). Safe dose perspective is gained from comparing in vitro concentration response results to calculated liver inlet Cmax (maximum plasma concentration).

HepG2 cell = HepG2 cell glucose/galactose shift model; type: cell-based, human
[2] = tested on: HEPATOPAC hepatocyte coculture; assay: HEPATOPAC urea synthesis (mitochondrial function); type: cell-based, rat; conditions: 50 µM
Method: Effects of test agents on mitochondrial function were assessed from media collected in the same HEPATOPAC studies by monitoring urea synthesis rates ([Khetani et al., 2013]).

NTCP = target: T4, NTCP (Homo sapiens, UniProt Q14973); assay: NTCP uptake transporter inhibition assay; type: cell-based; conditions: for inhibition of NTCP-mediated probe substrate transport: uptake transporter inhibition assay
T4 construct: expressed in transfected cells; host or cells: CHO (telcagepant); HEK293 (ubrogepant, MK-3207)
T4 sequence (Q14973 1-349): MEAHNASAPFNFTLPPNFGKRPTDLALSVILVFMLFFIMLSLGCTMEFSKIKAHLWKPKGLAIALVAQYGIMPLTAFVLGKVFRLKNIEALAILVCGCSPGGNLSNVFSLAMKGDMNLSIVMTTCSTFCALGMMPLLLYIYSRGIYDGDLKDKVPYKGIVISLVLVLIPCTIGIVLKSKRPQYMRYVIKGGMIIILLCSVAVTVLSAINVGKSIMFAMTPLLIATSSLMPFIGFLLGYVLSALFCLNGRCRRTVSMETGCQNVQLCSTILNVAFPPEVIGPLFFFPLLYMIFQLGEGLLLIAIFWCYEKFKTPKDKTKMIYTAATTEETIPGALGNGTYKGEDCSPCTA
Method: as §1, §2

T2 sequence (Q16602 23-461): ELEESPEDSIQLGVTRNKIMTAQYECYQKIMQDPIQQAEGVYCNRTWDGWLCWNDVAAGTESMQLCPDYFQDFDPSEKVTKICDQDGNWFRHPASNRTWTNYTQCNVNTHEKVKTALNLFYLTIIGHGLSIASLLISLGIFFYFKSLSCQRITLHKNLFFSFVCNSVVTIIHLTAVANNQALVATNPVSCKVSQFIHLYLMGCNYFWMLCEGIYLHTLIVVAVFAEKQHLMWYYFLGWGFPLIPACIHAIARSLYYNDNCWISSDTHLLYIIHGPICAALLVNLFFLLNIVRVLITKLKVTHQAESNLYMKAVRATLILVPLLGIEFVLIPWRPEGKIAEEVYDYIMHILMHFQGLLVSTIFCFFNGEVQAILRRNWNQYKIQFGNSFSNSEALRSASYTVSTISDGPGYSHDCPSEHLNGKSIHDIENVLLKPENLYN
T2 sequence (O60894 27-148): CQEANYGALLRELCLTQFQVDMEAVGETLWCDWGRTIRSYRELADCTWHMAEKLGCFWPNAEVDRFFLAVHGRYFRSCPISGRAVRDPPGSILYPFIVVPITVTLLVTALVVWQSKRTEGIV
T3 sequence (O95342 whole entry): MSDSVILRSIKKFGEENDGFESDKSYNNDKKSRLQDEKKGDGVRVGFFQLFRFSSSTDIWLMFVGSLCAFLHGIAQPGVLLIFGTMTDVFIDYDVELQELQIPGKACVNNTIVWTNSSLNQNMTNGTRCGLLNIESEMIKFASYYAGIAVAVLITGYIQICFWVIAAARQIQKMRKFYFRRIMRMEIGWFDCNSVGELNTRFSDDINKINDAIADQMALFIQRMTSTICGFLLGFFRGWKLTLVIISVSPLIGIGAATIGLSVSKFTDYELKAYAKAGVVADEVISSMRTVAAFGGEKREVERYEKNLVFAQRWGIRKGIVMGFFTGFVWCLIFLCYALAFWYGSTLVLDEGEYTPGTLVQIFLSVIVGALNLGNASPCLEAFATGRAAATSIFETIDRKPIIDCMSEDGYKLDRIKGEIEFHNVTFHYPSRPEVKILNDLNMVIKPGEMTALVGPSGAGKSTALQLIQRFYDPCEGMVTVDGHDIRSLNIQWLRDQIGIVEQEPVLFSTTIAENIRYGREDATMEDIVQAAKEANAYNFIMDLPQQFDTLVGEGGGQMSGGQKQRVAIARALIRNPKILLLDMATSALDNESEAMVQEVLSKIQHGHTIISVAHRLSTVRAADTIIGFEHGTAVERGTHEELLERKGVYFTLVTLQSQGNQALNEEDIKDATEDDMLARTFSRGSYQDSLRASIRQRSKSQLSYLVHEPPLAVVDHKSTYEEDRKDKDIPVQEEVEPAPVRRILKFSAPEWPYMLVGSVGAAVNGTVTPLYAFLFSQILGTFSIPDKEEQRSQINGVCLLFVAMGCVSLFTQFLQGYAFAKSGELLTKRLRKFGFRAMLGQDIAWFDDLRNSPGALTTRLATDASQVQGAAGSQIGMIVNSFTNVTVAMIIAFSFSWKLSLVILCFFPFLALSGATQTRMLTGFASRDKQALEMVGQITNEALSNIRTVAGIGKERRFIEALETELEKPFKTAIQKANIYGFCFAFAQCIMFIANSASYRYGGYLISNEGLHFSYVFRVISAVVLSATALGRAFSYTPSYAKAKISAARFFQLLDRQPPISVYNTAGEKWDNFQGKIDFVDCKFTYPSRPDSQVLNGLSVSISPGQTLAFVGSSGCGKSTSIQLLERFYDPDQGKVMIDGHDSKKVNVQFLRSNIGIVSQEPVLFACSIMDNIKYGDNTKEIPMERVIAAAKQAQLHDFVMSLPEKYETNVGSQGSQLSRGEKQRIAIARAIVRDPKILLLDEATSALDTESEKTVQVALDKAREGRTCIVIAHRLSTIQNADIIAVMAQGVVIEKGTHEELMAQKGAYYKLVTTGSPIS

## O=C(CN1C(=O)C2(CCCC2)NC[C@H]1c1cc(F)cc(F)c1)Nc1ccc2c(c1)C[C@@]1(C2)C(=O)Nc2ncccc21 [MK-3207]
MRP4
  inhibition of MRP4-mediated probe substrate transport: No inhibition was observed
CGRP receptor
  IC50: 0.12 nM
[1]; 4.4× estimated unbound liver Cmax (highest testable concentration, solubility)
  effect on bile acid excretion: no significant impact was observed on biliary excretion
HepG2 cell
  mitochondrial toxicity potential: did not raise mitochondrial safety concerns
[2]
  effect on urea (mitochondrial function): No effect on urea
NTCP
  inhibition of NTCP-mediated probe substrate transport: No inhibition was observed

## C[C@@H]1[C@H](c2ccccc2)C[C@H](NC(=O)c2cnc3c(c2)C[C@@]2(C3)C(=O)Nc3ncccc32)C(=O)N1CC(F)(F)F [Ubrogepant]
MRP4; human, membrane vesicles with MRP4 (vesicular transport assay), 70 µM (solubility limit), read-out: maximum inhibition at the highest concentration tested, MRP4
  inhibition at 70 µM: < 50%
MRP4
  inhibition of MRP4-mediated probe substrate transport: did not inhibit MRP4
CGRP receptor
  IC50: 0.08 nM

## O=C(N[C@@H]1CC[C@@H](c2cccc(F)c2F)CN(CC(F)(F)F)C1=O)N1CCC(n2c(=O)[nH]c3ncccc32)CC1 [Telcagepant]
MRP4; curve fitting assuming maximum inhibition at higher concentrations is 100%, read-out: MRP4 estimated lowest possible IC50
  IC50: ≥ 16900 nM
MRP4; human, membrane vesicles with MRP4 (vesicular transport assay), read-out: maximum inhibition at the highest concentration tested, MRP4
  inhibition at 20 µM: < 50%
MRP4
  inhibition of MRP4-mediated probe substrate transport: inhibited
[1]; 10.7× estimated unbound liver Cmax
  effect on bile acid excretion: No effect on bile acid excretion
HepG2 cell
  mitochondrial toxicity potential: did not raise mitochondrial safety concerns
[2]
  effect on urea (mitochondrial function): No effect on urea
NTCP; CHO cells expressing NTCP, up to 25 μM
  NTCP inhibition: > 50%
NTCP; taurocholate uptake, read-out: NTCP estimated IC50
  IC50: 19400 nM
NTCP
  inhibition of NTCP-mediated probe substrate transport: inhibited
